Data as given in US20020111305A1, “Antiviral peptides” (priority 1998, published 2002).
Where no end group is shown, it is not given here.

Experiments:
[1] = system: HIV-1 III-b; experiment: HIV-1 neutralization assay (syncytia-forming on MT-2 cells); assay type: cell-based, Human Immuno-deficiency Virus Type 1; details: day 21; 457 TCID50 HIV per ml; 2 hours at 37° C.; maximum 800 μg/ml
Description: (§1) A neutralization assay was performed on HIV-1 III-b as substantially described by Groenink M. et al., J. Virol 69, 523-527 (1995). In short, this assay comes down to the virus-neutralizing capacity of the different peptides being tested with an inoculum of 457 TCID50HIV per ml per neutralization, which is incubated at 37° C. for two hours with a twofold dilution series of the peptide for testing (maximum 800 μg/ml final concentration). The incubations are performed in a 5 mM phosphate buffer. On day 7, 14 and 21 the neutralization is assessed on the basis of the detected cytopathic effect (syncytia-forming) on MT-2 cells.

[2] = system: Herpes Simplex Virus (HSV); experiment: Antiviral activity against Herpes Simplex Virus (TCID50 on Vero-cells after pre-incubation with peptide); assay type: cell-based
Description: In test phials 10 μl HSV (Department of Virology Academisch Ziekenhuis Leiden (Leiden University Hospital), lab strain 96-6700 P (TCID50 10^5-10^6), was supplemented with peptide and NaPB to 200 μl. For the positive control the peptide was replaced by a human neutrophil defensin pool (HNP1-3). The test phials were subsequently incubated at 37° C. for 3 hours. Tenfold dilutions were then made in Dulbecco's Modified Eagles Medium (DMEM) with 2% foetal calf serum (FSCi). Diverse peptides, synthesized in identical manner, were used as negative control in the experiments.
Vero-cells were isolated using detachment buffer (0.25% trypsin and 0.03% EDTA in PBS), washed and brought to a concentration of 2×10^5 cells per ml DMEM +2% FCSi. In 96 wells-plates (Nunclon) 100 μl cell suspension (2×10^4 cells) was added per well. Acyclovir (ACV) was added as control to several wells about two hours (t=−2 hours) before infection. 50 μl of a dilution was added to each well at the point in time t=0.
After 3 days incubation in a CO2-stove of 37° C. the cytopathological effect (cpe) was scored by counting under the microscope and the TCID50 (tissue culture […] dose) was determined using the Reed & Muench method (Dulbecco & Ginsberg, “Virology”, JB Lippincott Co., Philadelphia, 2nd edition, 1988).
The effectiveness of peptide 10 in time was then determined. […]

[3] = system: MT-2 cells; experiment: Cytotoxicity seen in the HIV-1 neutralization assay; assay type: cell-based; details: 800 μg/ml
Description: as §1

| Sequence | neutralizing capacity: μg/ml necessary for neutralization [1] | activity against HSV compared with HNP, dilution series (FIG. 3) ([2]; in high concentrations) | effectiveness against HSV compared with acyclovir and HNP (FIG. 1) ([2]; peptide at sufficiently high concentrations (50 μg/ml), 3 hours at 37° C.) | cytotoxicity at the highest concentration [3] |
| --- | --- | --- | --- | --- |
| DSHAKRHHGYKRKFHEKHHSHRGY [his 5, reference compound] | no neutralization | – | – | – |
| KRKFHEKHHSHRGY [dh-5, the C-terminal part of histatin 5, reference compound] | no neutralisation | – | – | – |
| KRLFKELLFSLRKY [peptide 4] | 200 µg/mL | – | – | – |
| KRLFKKLLFSLRKY [peptide 10] | 200 µg/mL | more effective than HNP | at least as effective as acyclovir and HNP | – |
| LLLFLLKKRKKRKY [peptide 11, LLLFLLKKRKKRKY] | – | – | – | # peptide 11 was cytoxic at the highest concentration (800 μg/ml). |
